Source: patent publication US10865207B2, “Compounds for imaging Tau protein aggregates” (AC IMMUNE S.A., priority 2016, dated 2020)
Marks after values point to notes of the source that are not given here.

Legend:
amyloid-beta = amyloid-beta (Homo sapiens, UniProt P05067); assay: Competition binding to amyloid-beta in AD brain homogenate; conditions: for IC50: fluorine-19 derivatives
Description: (§1) 20 μg of human Alzheimer disease brain homogenate was incubated with a dilution series of each test compound (1000 to 0.06 nM) in the presence of 800 Bq of ^18F-labeled beta-amyloid binder. The samples were shaken at 110 rpm for 45 min at 37° C. Samples were then filtered through GF/B 96 well filter plates and washed twice with 300 μL assay buffer (PBS containing 0.1% BSA and 2% DMSO). Thereafter, filter plates were sealed and a Fuji Film Imaging Plate (BAS-SR2025) was placed on top. The imaging plate was analyzed after overnight exposition using a Fuji Film BAS-5000. Non-specific signal was determined with samples containing ^18F-labeled beta-amyloid binder in the presence of assay buffer without brain substrate and competitor. […] The unblocked ^18F-labeled beta-amyloid binder signal was defined as total binding. IC50 values were calculated by Prism V6 (GraphPad) setting total binding to 100%.

MAO B = target: T1, MAO B (Homo sapiens, UniProt P27338); assay: MAO B 18F-fluoro deprenyl competition assay in human HC brain homogenate; type: binding; design: Low affinity to MAO B (grade): key: −: poor; ∘: moderate; +: good; ++: very good; +++: excellent
T1 construct: 20 μg of human brain homogenate (without AD pathology); from tissue; host or cells: human brain homogenate without AD pathology
T1 sequence (P27338 1-520): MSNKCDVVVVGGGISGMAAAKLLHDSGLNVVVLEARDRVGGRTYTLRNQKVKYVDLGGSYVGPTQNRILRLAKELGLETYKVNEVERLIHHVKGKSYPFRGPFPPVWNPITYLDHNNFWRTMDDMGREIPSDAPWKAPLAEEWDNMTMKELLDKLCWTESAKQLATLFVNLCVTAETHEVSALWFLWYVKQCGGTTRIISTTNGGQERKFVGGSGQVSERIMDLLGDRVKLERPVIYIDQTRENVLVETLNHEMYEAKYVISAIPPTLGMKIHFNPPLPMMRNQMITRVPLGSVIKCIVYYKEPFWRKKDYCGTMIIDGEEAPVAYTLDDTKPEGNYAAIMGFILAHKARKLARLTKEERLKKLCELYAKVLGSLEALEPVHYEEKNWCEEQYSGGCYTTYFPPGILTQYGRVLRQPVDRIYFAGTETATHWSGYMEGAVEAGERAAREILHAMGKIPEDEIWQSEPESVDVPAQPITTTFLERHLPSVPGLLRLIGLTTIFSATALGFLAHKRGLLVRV
Description: The samples were shaken at 110 rpm for 45 min at 37° C. Samples were then filtered through GF/B 96 well filter plates and washed twice with 300 μL assay buffer (PBS containing 0.1% BSA and 2% DMSO). Thereafter, filter plates were sealed and a Fuji Film Imaging Plate (BAS-SR2025) was placed on top. The imaging plate was analyzed after overnight exposition using a Fuji Film BAS-5000. […] IC50 values were calculated by Prism V6 (GraphPad) setting total binding to 100%.

MAO A = target: T2, MAO A (Homo sapiens, UniProt P21397); assay: MAO A FEH competition assay in human HC brain homogenate; type: binding; design: Low affinity to MAO A (grade), HC homogenate: key: −: poor; ∘: moderate; +: good; ++: very good; +++: excellent; conditions: for IC50: human control brain homogenate, FEH competition, fluorine-19 derivatives
T2 construct: 20 μg of human brain homogenate (without AD pathology); from tissue; host or cells: human brain homogenate without AD pathology
T2 sequence (P21397 1-527): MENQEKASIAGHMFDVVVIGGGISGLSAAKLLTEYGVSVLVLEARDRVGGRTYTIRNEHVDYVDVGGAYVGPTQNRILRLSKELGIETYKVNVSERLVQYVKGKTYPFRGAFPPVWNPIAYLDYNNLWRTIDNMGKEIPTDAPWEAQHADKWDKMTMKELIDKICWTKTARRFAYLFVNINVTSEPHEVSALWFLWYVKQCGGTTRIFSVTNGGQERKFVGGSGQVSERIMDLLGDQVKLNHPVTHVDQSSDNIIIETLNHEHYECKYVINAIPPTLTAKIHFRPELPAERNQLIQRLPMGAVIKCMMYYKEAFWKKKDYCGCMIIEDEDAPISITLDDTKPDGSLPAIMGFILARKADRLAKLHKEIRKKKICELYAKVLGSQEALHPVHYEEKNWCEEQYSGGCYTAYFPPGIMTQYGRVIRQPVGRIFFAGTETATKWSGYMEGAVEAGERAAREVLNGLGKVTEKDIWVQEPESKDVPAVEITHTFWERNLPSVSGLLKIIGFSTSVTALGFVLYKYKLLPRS
Description: as §1, with “human” for “human Alzheimer disease”, “homogenate (without AD pathology)” for “homogenate”, “MAO-A binder ([^18F]fluoroethyl harmine, FEH).” for “beta-amyloid binder.”, “FEH” for “beta-amyloid binder”

[1] = PK studies in healthy mice (dynamic PET); type: in vivo, NMRI mice; design: Good brain uptake (grade) / Mouse PK Uptake (grade): key: −: poor; ∘: moderate; +: good; ++: very good; +++: excellent; on Fast washout from healthy brain (grade): key: −: poor; ∘: moderate; +: good; ++: very good; +++: excellent; on Good brain uptake (grade): key: −: poor; ∘: moderate; +: good; ++: very good; +++: excellent; on Mouse PK De-fluorination (grade): key: −: poor; ∘: moderate; +: good; ++: very good; +++: excellent; on Mouse PK Washout (grade): key: −: poor; ∘: moderate; +: good; ++: very good; +++: excellent
Description: NMRI mice (weight range 25-35 g) were injected intravenously with the ^18F-labeled compounds. Up to 150 μL of 1×PBS solution with 10%-15% EtOH or dilution medium ([…]) containing the ^18F-labeled compound (2-10 MBq) were injected. Anesthesia with isoflurane was induced before injection of the tracer and maintained during the image acquisition period. PET scans were performed using a SIEMENS INVEON small animal PET/CT scanner (Siemens, Knoxville, Tenn.). PET acquisition was started immediately before the radioactive dose was injected into the animal through the tail vein. Images were generated as dynamic scans for 60 minutes.
The peak uptake in the brain was set to 100% and washout curves were generated to evaluate the clearance of the activity from the normal brain (FIG. 2).

Sequence of amyloid-beta (P05067 whole entry): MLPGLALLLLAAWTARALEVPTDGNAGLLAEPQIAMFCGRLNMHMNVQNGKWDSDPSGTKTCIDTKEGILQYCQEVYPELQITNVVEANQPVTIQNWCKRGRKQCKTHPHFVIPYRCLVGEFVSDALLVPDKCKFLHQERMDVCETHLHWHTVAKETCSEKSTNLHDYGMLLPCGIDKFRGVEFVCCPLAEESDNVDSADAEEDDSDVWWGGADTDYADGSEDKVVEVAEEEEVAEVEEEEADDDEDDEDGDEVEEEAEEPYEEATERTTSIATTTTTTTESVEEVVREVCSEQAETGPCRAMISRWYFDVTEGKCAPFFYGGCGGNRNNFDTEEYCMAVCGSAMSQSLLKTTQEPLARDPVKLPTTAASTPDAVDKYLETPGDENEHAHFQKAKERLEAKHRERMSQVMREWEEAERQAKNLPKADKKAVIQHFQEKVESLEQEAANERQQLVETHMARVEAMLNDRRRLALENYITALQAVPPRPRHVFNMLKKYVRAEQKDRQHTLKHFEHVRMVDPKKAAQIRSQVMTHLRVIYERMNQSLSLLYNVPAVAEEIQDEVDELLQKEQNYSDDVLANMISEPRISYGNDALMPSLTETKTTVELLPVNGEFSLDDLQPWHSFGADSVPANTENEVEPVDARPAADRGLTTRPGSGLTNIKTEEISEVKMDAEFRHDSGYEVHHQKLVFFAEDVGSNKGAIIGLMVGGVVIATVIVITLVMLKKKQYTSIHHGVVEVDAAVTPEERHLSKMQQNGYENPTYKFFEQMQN

Fc1ncccc1-c1ccc2c(n1)[nH]c1ccncc12 [Compound F-4]
IC50 (amyloid-beta): > 1000 nM | IC50 (MAO B): > 1000 nM | IC50 (MAO A): 530 nM | Mouse PK De-fluorination (grade) ([1]; Table 2): +++ | Mouse PK Uptake (grade) ([1]; Table 2): ++ | Mouse PK Washout (grade) ([1]; Table 2): ++ | bone uptake in shoulder joint at 60 min (de-fluorination) ([1]; healthy mice, after iv injection): (<0.5% ID/g) ^f | peak uptake in brain (tracer uptake in healthy mice after iv injection) ([1]; healthy mice, iv, PET): (5.8% ID/g) | ratio of uptake peak/30 min (washout from healthy brain) ([1]; healthy mice, Table 1: ratio of uptake at 2 min and 30 min): (22)

[18F]c1ncccc1-c1ccc2c(n1)[nH]c1ccncc12 [Compound ^18F-4]
Low affinity to amyloid-beta (grade) (amyloid-beta; Table 1): +++^a) | IC50 (amyloid-beta): > 1000 nM | IC50 (MAO B): > 1000 nM | fold higher MAO B IC50 than compound 18F-1 (MAO B; HC brain homogenate): > 5 fold | Low affinity to MAO B (grade) (MAO B; Table 1): +++ | fold higher MAO A IC50 than compound 18F-1 (MAO A; HC brain homogenate): 106 fold | fold higher MAO A IC50 than compound 18F-2 (MAO A; HC brain homogenate): 5 fold | Low affinity to MAO A (grade), HC homogenate (MAO A; Table 1): ++ | IC50 (MAO A): 530 nM | Fast washout from healthy brain (grade) ([1]; Table 1): +++ | Good brain uptake (grade) ([1]; Table 1): ++ | Low or minor de-fluorination (grade) ([1]; Table 1): +++ | Low retention in healthy brain (grade) ([1]; Table 1): +++ | fold faster washout from healthy brain than compound 18F-1 ([1]; mice): 3.2 fold | fold faster washout from healthy brain than compound 18F-2 ([1]; mice): 2.0 fold | fold less long-term retention in healthy brain than compound 18F-1 ([1]; mice): 4 fold | fold less long-term retention in healthy brain than compound 18F-2 ([1]; mice): 3 fold | De-fluorination in mice (in words) ([1]; mouse, in vivo): No de-fluorination
